In patent US11827628B2, “Compositions and methods for inhibition of the JAK pathway” (Rigel Pharmaceuticals, Inc., priority 2005, dated 2023):
Counter-ions that a name gives are not always drawn.

system: IL-4 stimulated expression of CD23 in human Ramos B cells (JAK-1 and JAK-3); test: Assay for Ramos B-Cell Line Stimulated with IL-4 (CD23 upregulation, FACS); type: cell-based; details: Homo sapiens, Ramos, Ramos B cells stimulated with IL-4, CD23 expression by FACS; read-out: IC50, Example 41
Source text: One means of assaying for such inhibition is detection of the effect of the 2,4-substituted pyrimidinediamine compounds on the upregulation of downstream gene products. In the Ramos/IL4 assay, B-cells are stimulated with the cytokine Interleukin-4 (IL-4) leading to the activation of the JAK/Stat pathway through phosphorylation of the JAK family kinases, JAK1 and JAK3, which in turn phosphorylate and activate the transcription factor Stat-6. […] To study the effect of inhibitors (e.g., the 2,4-substituted pyrimindinediamine compounds described herein) on the JAK1 and JAK3 kinases, human Ramos B cells are stimulated with human IL-4. Twenty to 24 hours post stimulation, cells are stained for upregulation of CD23 and analyzed using flow cytometry (FACS). […] An exemplary assay of this type is described in greater detail in Example 41
B-cells stimulated with cytokine Interleukin-4 (IL-4) activate the JAK/Stat pathway through phosphorylation of the JAK family kinases, JAK-1 and JAK-3, which in turn phosphorylate and activate the transcription factor Stat-6. […] To study the effect of inhibitors on the JAK family kinases, human Ramos B cells are stimulated with human IL-4.
The Ramos B-cell line was acquired from ATCC (ATCC Catalog No. CRL-1596). The cells were cultured in RPMI 1640 (Cellgro, MediaTech, Inc., Herndon, VA, Cat No. 10-040-CM) with 10% fetal bovine serum (FBS), heat inactivated (JRH Biosciences, Inc, Lenexa, Kansas, Cat No. 12106-500M) according to ATCC propagation protocol. Cells were maintained at a density of 3.5×10^5. The day before the experiment, Ramos B-cells were diluted to 3.5×10^5 cells/mL to ensure that they were in a logarithmic growth phase.
Cells were spun down and suspended in RPMI with 5% serum. 5×10^4 cells were used per point in a 96-well tissue culture plate. Cells were pre-incubated with compound or DMSO (Sigma-Aldrich, St. Louis, MO, Cat No. D2650) vehicle control for 1 hour in a 37° C. incubator. Cells were then stimulated with IL-4 (Peprotech Inc., Rocky Hill, NJ, Cat No. 200-04) for a final concentration of 50 units/mL for 20-24 hours. Cells were then spun down and stained with anti-CD23-PE(BD Pharmingen, San Diego, CA, Cat No. 555711) and analyzed by FACS. Detection was performed using a BD LSR I System Flow Cytometer, purchased from Becton Dickinson Biosciences of San Jose, California The IC50 calculated based on the results of this assay are provided in TABLE XII.

IC50 [nM]	Compound
18300	COc1ccc(Nc2nc(Nc3ccncc3S(N)(=O)=O)ncc2F)cc1Cl [VI-31, N2-(3-Aminosulfonylpyrid-4-yl)-N4-(3-chloro-4-methoxyphenyl)-5-fluoro-2,4-pyrimidinediamine]
4560	Cc1cc(O)nc2ccc(Nc3nc(Nc4cccc(S(N)(=O)=O)c4)ncc3F)cc12 [VII-74, N2-(3-Aminosulfonylphenyl)-5-fluoro-N4-(2-hydroxy-4-methylquinolin-6-yl)-2,4-pyrimidinediamine]
1110	COc1ccc(CN2C(=O)C(C)Sc3ccc(Nc4nc(Nc5ccc(C)c(S(N)(=O)=O)c5)ncc4F)cc32)cc1 (racemic) [Compound V-9, (R/S)-N2-(3-Aminosulphonyl-4-methylphenyl)-5-fluoro-N4-[2-methyl-3-oxo-4-(4-methoxybenzyl)-benzo[1,4]thiazin-6-yl]-2,4-pyrimidinediamine]
10300	CCN(CC)S(=O)(=O)c1cc(Nc2ncc(F)c(N(C)c3ccc(Cl)c(Cl)c3)n2)ccc1OC [VI-105, N4-(3,4-dichlorophenyl)-N4-methyl-5-fluoro-N2-[3-(N,N-diethyl)aminosulfonyl-4-methoxyphenyl]-2,4-pyrimidinediamine]
803	CCCCNS(=O)(=O)c1cccc(Nc2ncc(F)c(Nc3ccc(C)c(C#N)c3)n2)c1 [VI-96, N2-(3-Butylaminosulfonylphenyl)-N4-(3-cyano-4-methylphenyl)-5-fluoro-2,4-pyrimidinediamine]
548	Cc1ccc(Nc2ncc(F)c(Nc3ccc4c(c3)CCC(=O)N4)n2)cc1S(N)(=O)=O [VII-21, N2-(3-Aminosulfonyl-4-methylphenyl)-N4-[3,4-dihydro-(1H)-quinolin-2-one-6-yl]-5-fluoro-2,4-pyrimidinediamine]
3080	CCC(=O)NS(=O)(=O)c1cc(Nc2ncc(F)c(Nc3ccc(CCC#N)c(C)c3)n2)ccc1C [VI-103, N4-[4(2-Cyanoethyl)-3-methylphenyl]-5-fluoro-N2-(4-methyl-3-propionylaminosulfonylphenyl)-2,4-pyrimidinediamine]
455	NC(=O)NCCc1ccc(Nc2nc(Nc3cccc(S(N)(=O)=O)c3)ncc2F)cc1 [VI-72, N4-{4-[2-(Aminocarbonylamino)ethyl]phenyl}-N2-(3-aminosulfonylphenyl)-5-fluoro-2,4-pyrimidinediamine]
8880	Cc1ccc(Nc2ncc(F)c(Nc3ccc4c(C(N)=O)c[nH]c4c3)n2)cc1S(N)(=O)=O [IX-9, N4-[3-(Aminocarbonyl)-1H-indol-6-yl]-N2-(3-aminosulfonyl-4-methylphenyl)-5-fluoro-2,4-pyrimidinediamine]

same assay, conditions: Homo sapiens, Ramos, Ramos B-cell line stimulated with IL-4; CD23 expression by FACS; read-out: IC50, Example 41

IC50 [nM]	Compound
11500	CCC(=O)NS(=O)(=O)c1cc(Nc2ncc(F)c(Nc3ccc(OCC(=O)OC)cc3)n2)ccc1C [Compound I-213, 5-Fluoro-N4-(4-methoxycarbonylmethoxyphenyl)-N2-(4-methyl-3-propionylaminosulfonylphenyl)-2,4-pyrimidinediamine]
24.1	N#CCOc1ccc(Nc2nc(Nc3cccc(S(N)(=O)=O)c3)ncc2F)cc1Cl [Compound I-42, N2-(3-Aminosulfonylphenyl)-N4-(3-chloro-4-cyanomethoxyphenyl)-5-fluoro-2,4-pyrimidinediamine]
2210	Cc1cc(Nc2nc(Nc3ccc(C)c(S(N)(=O)=O)c3)ncc2F)ccc1OC1CCN(C)CC1 [II-5, N2-(3-Aminosulfonyl-4-methylphenyl)-5-fluoro-N4-{3-methyl-4-[(1-methylpiperidin-4-yl)oxy]phenyl}-2,4-pyrimidinediamine]
1190	CNC(=O)COc1ccc(Nc2nc(Nc3ccc(S(N)(=O)=O)cc3)ncc2F)cc1 [Compound I-143, N2-(4-Aminosulfonylphenyl)-5-fluoro-N4-(4-methylaminocarbonylmethoxyphenyl)-2,4-pyrimidinediamine]

same assay, conditions: Ramos B cells stimulated with IL-4, CD23 expression by FACS; read-out: IC50, Example 41

IC50 [nM]	Compound
397	CCNC(=O)NCc1cccc(Nc2nc(Nc3cccc(S(N)(=O)=O)c3)ncc2F)c1 [III-117, N2-(3-aminosulfonyl)phenyl-N4-(3-ethylaminocarbonylaminomethyl)phenyl-5-fluoro-2,4-pyrimidinediamine]
603	CN1C(=O)C(C)(C)Oc2ccc(Nc3nc(Nc4ccc(S(N)(=O)=O)cc4)ncc3F)nc21 [VII-43, N2-(4-Aminosulfonylphenyl)-N4-[2,2,4-trimethyl-3-oxo-5-pyrid[1,4]oxazin-5-yl]-5-fluoro-2,4-pyrimidinediamine]
115	CNS(=O)(=O)c1cc(Nc2ncc(F)c(NCCc3ccc(-n4ccnc4)cc3)n2)ccc1C [III-89, 5-Fluoro-N2-[3-(N-methylaminosulfony)-4-methylphenyl]-N4-[4-(1-imidazolyl)phenethyl]-2,4-pyrimidinediamine]
944	N2-(4-aminosulfonyl)phenyl-5-fluoro-N4-(4-thiomethylcarbonyl)phenyl-2,4-pyrimidinediamine [VI-94]
836	CCCN(Cc1ccc(Nc2nc(Nc3ccc(S(N)(=O)=O)cc3)ncc2F)cc1)C(N)=O [III-125, N2-(4-aminosulfonyl)phenyl-N4-[4-(N-carbamoyl-N-propyl)aminomethyl]phenyl-5-fluoro-2,4-pyrimidinediamine]

Compound	IC50 [nM]
Cc1ccc(Nc2ncc(F)c(Nc3ccc4nc(N(C)C)ccc4c3)n2)cc1S(N)(=O)=O [VII-75, N2-(3-Aminosulfonyl-4-methylphenyl)-N4-(2-N,N′-dimethylamine-quinolin-6-yl)-5-fluoro-2,4-pyrimidinediamine]	544

same assay, conditions: Ramos B cells stimulated with IL-4, CD23 expression by FACS; sodium salt; read-out: IC50, Example 41

IC50 [nM]	Compound
6090	CCC(=O)NS(=O)(=O)c1cccc(Nc2ncc(F)c(Nc3ccc(CCOC(=O)N(C)C)cc3)n2)c1 [VI-66, N4-{4-[2-(Dimethylaminocarbonyloxy)ethyl]phenyl}-5-fluoro-N2-(3-propionylaminosulfonylphenyl)-2,4-pyrimidinediamine sodium salt]

same assay, conditions: Ramos B-cell line stimulated with IL-4; CD23 expression by FACS; read-out: IC50, Example 41

IC50 [nM]	Compound
5500	CN1CCN(S(=O)(=O)c2cccc(Nc3ncc(F)c(Nc4cccc(OCC(N)=O)c4)n3)c2)CC1 [Compound I-89, N4-(3-Aminocarbonylmethoxy)phenyl-5-fluoro-N2-[3-(4-methylpiperazin-1-yl)sulfonyl]phenyl-2,4-pyrimidinediamine]
395	N2-(3-Aminocarbonyl-5-methylphenyl)-5-fluoro-N2-[4-(1-methylpyrazol-3-yl)amidophenyl)-2,4-pyrimidinediamine [II-19]
1980	CCC(=O)NS(=O)(=O)c1cccc(Nc2ncc(F)c(Nc3ccc(OCc4cc(C)on4)cc3)n2)c1 [Compound I-236]
788	5-Fluoro-N4-(4-[3-methyl-1,2,4-oxadiazol-5-yl]methyleneoxyphenyl)-N2-(5-piperidinesulfonylphenyl)-2,4-pyrimidinediamine [Compound I-272]
1400	COc1cc(Nc2nc(Nc3cccc(S(N)(=O)=O)c3)ncc2F)ccc1NC(=O)CC#N [Compound I-84, N2-(3-Aminosulfonylphenyl)-5-fluoroN4-[3-methoxy-4-(N-cyanoacetyl)aminophneyl]-2,4-pyrimidinediamine]
793	NC(=O)COc1ccc(Nc2nc(Nc3ccc(S(N)(=O)=O)cc3)ncc2F)cc1 [Compound I-115, N4-(4-Aminocarbonylmethoxy)phenyl-N2-(4-aminosulfonyl)phenyl-5-fluoro-2,4-pyrimidinediamine]
890	NC(=O)COc1ccc(Nc2nc(Nc3cccc(S(N)(=O)=O)c3)ncc2F)cc1 [Compound I-111, N4-(4-Aminocarbonylmethoxy)phenyl-N2-(3-aminosulfonyl)phenyl-5-fluoro-2,4-pyrimidinediamine]
1430	CC(=O)NS(=O)(=O)c1cccc(Nc2ncc(F)c(Nc3ccc(OCc4cc(C)on4)cc3)n2)c1 [Compound I-232, N2-(3-Acetamidosulfonylphenyl)-5-fluoro-N4-[4-(5-methylisoxazol-3-yl)methyleneoxyphenyl]-2,4-pyrimidinediamine]

same assay, conditions: Ramos B-cell line stimulated with IL-4; CD23 expression by FACS; sodium salt; read-out: IC50, Example 41

IC50 [nM]	Compound
917	CC(=O)NS(=O)(=O)c1cccc(Nc2ncc(F)c(Nc3ccc(OCc4cc(C)on4)cc3)n2)c1 [Compound I-243, N2-(3-Acetamidosulfonylphenyl)-5-fluoro-N4-[4-(5-methylisoxazol-3-yl)methyleneoxyphenyl]-2,4-pyrimidinediamine sodium salt]
